According to article PMC4897788, “Design, biological evaluation and 3D QSAR studies of novel dioxin-containing pyrazoline derivatives with thiourea skeleton as selective HER-2 inhibitors” (Scientific Reports, 2016):

Key:
[1] = Cytotoxicity test (MTT), NIH-3T3; format: cell-based; conditions: mouse, NIH-3T3 mouse embryonic fibroblast cells, NIH3T3
Method: The cytotoxic activity in vitro was measured against mouse fibroblast NIH-3T3 cell using the MTT assay. Cells were cultured in a 96-well plate at a density of 5 × 10^5 cells and different concentrations of compounds were respectively added to each well. The incubation was permitted at 37 °C, 5% CO2 atmosphere for 24 h before the cytotoxicity assessments. 20 μL MTT reagent (4 mg/mL) was added per well 4 h before the end of the incubation. Four hours later, the plate was centrifuged at 1200 rcf for 5 min and the supernatants were removed, each well was added with 200 μL DMSO. The absorbance was measured at a wavelength of 490 nm (OD 490 nm) on an ELISA microplate reader. Three replicate wells were used for each concentration and each assay was measured three times, after which the average of IC50 was calculated. The cytotoxicity of each compound was expressed as the concentration of compound that reduced cell viability to 50% (IC50).

[2] = system: MCF-7 human breast cancer cell line; assay: Anti-proliferation assay (MTT), MCF-7; format: cell-based; conditions: MCF7, 24 h
Method: (§1) MCF-7 human breast cancer cells was cultured in DMEM/10% fetal bovine serum, in 5% CO2 water saturated atmosphere at 37 °C. MDA-MB-453 human breast cancer cells was cultured in L-15 medium in 100% air at 37 °C. Cell suspensions (10000/mL) were prepared and 100 μL/well dispensed into 96-well plates (Costar) giving 1000 cells/well. The plates were returned to the incubator for 24 h to allow the cells to reattach. These compounds were initially prepared at 20 mM in DMSO. Aliquots (200 μL) were diluted into 20 mL culture medium giving 200 μM, and 10 serial dilutions of 3× prepared. Aliquots (100 μL) of each dilution were added to the wells, giving doses ranging from 100 μM to 0.005 μM. After a further incubated at 37 °C for 24 h in a humidified atmosphere with 5% CO2, the cell viability was assessed by the conventional 3-(4,5-dimethylthiazol-2-yl)-2,5-diphenyltetrazolium bromide (MTT) reduction assay and carried out strictly according to the manufacturer instructions (Sigma). The absorbance at 590 nm was recorded using LX300 Epson Diagnostic micro-plate reader. Then GI50 was calculated using SPSS 13.0 software.

HER-2 = HER-2 (Homo sapiens, UniProt P04626); assay: HER-2 autophosphorylation kinase assay (DELFIA/time-resolved fluorometry); conditions: for SI EGFR/HER-2: selectivity index, IC50 EGFR/IC50 HER-2
Method: Both EGFR and HER-2 kinase assays were set up to assess the level of autophosphorylation based on DELFIA/Time-Resolved Fluorometry. […] Then, 10 μL of 5× buffer (containing 20 mM HEPES, 2 mM MnCl2, 100 μM Na3VO4, and 1 mM DTT) and 20 μL of 0.1 mM ATP-50 mM MgCl2 was added for 1 h. Positive and negative controls were included in each plate by incubation of enzyme with or without ATP-MgCl2. At the end of incubation, liquid was aspirated and plates were washed three times with wash buffer. A 75 μL (400 ng) sample of europium-labeled anti-phosphotyrosine antibody was added to each well for another 1 h of incubation. […] The IC50 was obtained from curves of percentage inhibition with eight concentrations of compound. As the contaminants in the enzyme preparation are fairly low, the majority of the signal detected by the anti-phosphotyrosine antibody is from EGFR or HER-2. The experiment was performed for three independent times and in triplicate each time.

HER-3 = target: T1, HER-3 (Homo sapiens, UniProt P21860); assay: HER-3 inhibitory assay; format: biochemical
T1 construct: HER-3 cytoplasmic domain (HER-3-CD, amino acids 665–1339); His6 (N); made in house
T1 sequence (P21860 665-1339): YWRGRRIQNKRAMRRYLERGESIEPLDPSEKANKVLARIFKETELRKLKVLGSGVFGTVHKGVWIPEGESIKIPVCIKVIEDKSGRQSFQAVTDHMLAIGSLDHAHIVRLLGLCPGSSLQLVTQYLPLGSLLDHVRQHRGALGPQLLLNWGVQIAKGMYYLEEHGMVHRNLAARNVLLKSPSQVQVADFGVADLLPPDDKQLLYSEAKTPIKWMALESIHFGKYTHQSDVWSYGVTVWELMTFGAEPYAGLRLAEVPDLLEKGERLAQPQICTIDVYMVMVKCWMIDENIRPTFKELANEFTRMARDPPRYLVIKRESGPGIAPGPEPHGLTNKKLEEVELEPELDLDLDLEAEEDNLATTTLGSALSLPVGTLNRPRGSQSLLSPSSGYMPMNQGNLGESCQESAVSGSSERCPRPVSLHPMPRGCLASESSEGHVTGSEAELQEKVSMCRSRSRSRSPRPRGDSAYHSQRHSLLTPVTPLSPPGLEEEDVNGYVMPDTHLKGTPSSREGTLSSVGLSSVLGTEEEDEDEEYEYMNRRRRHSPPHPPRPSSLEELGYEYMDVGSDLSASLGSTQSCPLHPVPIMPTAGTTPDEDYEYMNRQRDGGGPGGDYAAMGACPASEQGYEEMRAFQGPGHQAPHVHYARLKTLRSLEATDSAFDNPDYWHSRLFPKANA
Method: A sequence that encodes (His)6 was located at the 5′ upstream to the HER-2 and EGFR sequences. Sf-9 cells were infected for 3 days for protein expression. Sf-9 cell pellets were solubilized at 0 °C in a buffer at pH 7.4 containing 50 mM HEPES, 10 mM NaCl, 1% Triton, 10 μM ammonium molybdate, 100 μM sodium vanadate, 10 μg/mL aprotinin, 10 μg/mL leupeptin, 10 μg/mL pepstatin, and 16 μg/mL benzamidine, HCl for 20 min followed by 20 min centrifugation. Crude extract supernatant was passed through an equilibrated Ni–NTA superflow packed column and washed with 10 mM and then 100 mM imidazole to remove nonspecifically bound material. Histidine-tagged proteins were eluted with 250 and 500 mM imidazole and dialyzed against 50 mM NaCl, 20 mM HEPES, 10% glycerol and 1 μg/mL each of aprotinin, leupeptin, and pepstatin for 2 h. The entire purification procedure was performed at 4 °C or on ice.
A 1.8 Kb cDNA encoded for human HER-3 cytoplasmic domain (HER-3-CD, amino acids 665–1339) was applied to perform the experiment using the same method as EGFR/HER-2.

VEGFR-2 = target: T2, VEGFR-2 (Homo sapiens, UniProt P35968); assay: VEGFR-2 inhibitory assay; format: biochemical
T2 construct: either the phosphorylated or nonphosphorylated form of the VEGFR-2 kinase domain
Method: In a 96-well plate, 5 nM/L of either the phosphorylated or nonphosphorylated form of the VEGFR-2 kinase domain was incubated with selected compounds (10-point titration ranging from 4 μM to 0.1 μM), 1 μM/L gastrin substrate, 20 mM/L Tris-HCl, pH 7.5, 10 mM/L MgCl2, 100 mM/L NaCl, 1.5 mM/L EGTA, 1 mM/L DTT, 0.2 mM/L sodium orthovanadate, and 20 μg/mL BSA for 30 min at 25 °C. ATP was added at a final concentration of 11.8 μM and incubated for 60 min at room temperature. Eu-labeled antiphosphotyrosine pT66 antibody (Perkin- Elmer) was then used for detection. The fluorescence at 665 nM was measured with a Wallac Victor plate reader using a time delay of 50 μs. The experiment was performed for three independent times and in triplicate each time.

EGFR = EGFR (Homo sapiens, UniProt P00533); assay: EGFR autophosphorylation kinase assay (DELFIA/time-resolved fluorometry)
[3] = system: MDA-MB-453 human breast cancer cell line; assay: Anti-proliferation assay (MTT), MDA-MB-453; format: cell-based; conditions: 24 h
Method: as §1

FAK = target: T3, FAK (Homo sapiens, UniProt Q05397); assay: FAK inhibitory assay (Kinase-Glo); format: biochemical
T3 construct: human-recombinant full-length FAK
Method: Selected compounds were tested against FAK. In a typical study, human-recombinant full-length FAK was incubated in kinase buffer containing ATP and the substrate for 4 h at room temperature with or without the presence of the corresponding coumpounds. The final concentration of drug as 100, 30, 10, 3 μg/mL. The remaining ATP in solution was then quantified utilizing the Kinase-Glo-luminescence kit (Promega).

human erythrocytes = assay: Hemolysis test; format: cell-based; conditions: lytic concentration 30%
Method: Hemolytic activity was assayed using fresh capillary human blood. Erythrocytes were collected by centrifuging the blood three times in chilled phosphate buffered saline (PBS at 4 °C) at 1000 × g for 10 min. The final pellet was resuspended in PBS to give a 2% w/v solution. Using a microtitre plate, 100 μL of the erythrocyte solution was added to dextran, PLL, stearyl-PLL or stearyl-PLL+ LDL (1–1000/μg/mL) in a volume of […]. Samples were then incubated for 3 h and the microtitre plate was centrifuged then at 1000 × g for 10 min and the supernatants (100 μL) transferred into a new microtitre plate. Hemoglobin release was determined spectrophotometrically using a microtitre plate reader (absorbance at 550 nm). Results were expressed as the amount of released hemoglobin induced by the compounds as a percentage of the total. Hemolysis test was tested according to the guide of biological evaluation of medical device (SFDA, China).

EGFR, sequence (P00533 669-1210): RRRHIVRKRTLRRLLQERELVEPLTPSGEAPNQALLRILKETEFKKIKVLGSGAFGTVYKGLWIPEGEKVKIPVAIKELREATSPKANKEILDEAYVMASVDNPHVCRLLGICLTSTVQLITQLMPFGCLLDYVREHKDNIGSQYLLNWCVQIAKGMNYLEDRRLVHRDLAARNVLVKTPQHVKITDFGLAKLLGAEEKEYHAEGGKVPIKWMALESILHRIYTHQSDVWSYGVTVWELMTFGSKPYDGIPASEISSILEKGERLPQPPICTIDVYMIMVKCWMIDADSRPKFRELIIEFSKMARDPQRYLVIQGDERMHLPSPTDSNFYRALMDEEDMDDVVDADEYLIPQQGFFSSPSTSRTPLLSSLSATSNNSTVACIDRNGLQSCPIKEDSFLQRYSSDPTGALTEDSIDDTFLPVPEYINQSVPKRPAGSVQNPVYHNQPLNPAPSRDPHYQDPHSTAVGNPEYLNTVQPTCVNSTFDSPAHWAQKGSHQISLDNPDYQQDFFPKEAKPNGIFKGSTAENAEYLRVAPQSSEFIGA
HER-2, sequence (P04626 676-1245): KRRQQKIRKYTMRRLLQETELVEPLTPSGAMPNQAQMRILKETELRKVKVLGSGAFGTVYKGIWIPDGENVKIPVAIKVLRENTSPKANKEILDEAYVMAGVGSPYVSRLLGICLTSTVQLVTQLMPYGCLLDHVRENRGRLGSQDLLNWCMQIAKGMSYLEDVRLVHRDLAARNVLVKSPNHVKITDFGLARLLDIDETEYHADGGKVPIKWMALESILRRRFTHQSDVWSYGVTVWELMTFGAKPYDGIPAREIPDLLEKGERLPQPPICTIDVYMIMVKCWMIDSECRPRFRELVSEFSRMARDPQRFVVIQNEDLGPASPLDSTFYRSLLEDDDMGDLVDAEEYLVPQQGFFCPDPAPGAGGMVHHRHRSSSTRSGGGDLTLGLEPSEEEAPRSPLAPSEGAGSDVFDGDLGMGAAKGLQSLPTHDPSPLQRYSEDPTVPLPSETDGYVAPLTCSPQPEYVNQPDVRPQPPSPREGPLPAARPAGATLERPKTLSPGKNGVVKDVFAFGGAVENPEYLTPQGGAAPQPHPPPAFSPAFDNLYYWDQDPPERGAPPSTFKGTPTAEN
T2 sequence (P35968 834-1162 limits assumed, species assumed): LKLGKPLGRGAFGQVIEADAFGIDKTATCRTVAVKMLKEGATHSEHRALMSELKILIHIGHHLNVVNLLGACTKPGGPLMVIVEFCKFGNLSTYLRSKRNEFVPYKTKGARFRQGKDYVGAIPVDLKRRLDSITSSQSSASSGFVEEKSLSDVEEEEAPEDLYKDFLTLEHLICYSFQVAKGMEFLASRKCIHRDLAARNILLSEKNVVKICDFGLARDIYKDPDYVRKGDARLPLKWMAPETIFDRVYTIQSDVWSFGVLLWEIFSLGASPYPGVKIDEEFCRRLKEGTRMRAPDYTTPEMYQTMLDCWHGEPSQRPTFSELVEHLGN
T3 sequence (Q05397 whole entry): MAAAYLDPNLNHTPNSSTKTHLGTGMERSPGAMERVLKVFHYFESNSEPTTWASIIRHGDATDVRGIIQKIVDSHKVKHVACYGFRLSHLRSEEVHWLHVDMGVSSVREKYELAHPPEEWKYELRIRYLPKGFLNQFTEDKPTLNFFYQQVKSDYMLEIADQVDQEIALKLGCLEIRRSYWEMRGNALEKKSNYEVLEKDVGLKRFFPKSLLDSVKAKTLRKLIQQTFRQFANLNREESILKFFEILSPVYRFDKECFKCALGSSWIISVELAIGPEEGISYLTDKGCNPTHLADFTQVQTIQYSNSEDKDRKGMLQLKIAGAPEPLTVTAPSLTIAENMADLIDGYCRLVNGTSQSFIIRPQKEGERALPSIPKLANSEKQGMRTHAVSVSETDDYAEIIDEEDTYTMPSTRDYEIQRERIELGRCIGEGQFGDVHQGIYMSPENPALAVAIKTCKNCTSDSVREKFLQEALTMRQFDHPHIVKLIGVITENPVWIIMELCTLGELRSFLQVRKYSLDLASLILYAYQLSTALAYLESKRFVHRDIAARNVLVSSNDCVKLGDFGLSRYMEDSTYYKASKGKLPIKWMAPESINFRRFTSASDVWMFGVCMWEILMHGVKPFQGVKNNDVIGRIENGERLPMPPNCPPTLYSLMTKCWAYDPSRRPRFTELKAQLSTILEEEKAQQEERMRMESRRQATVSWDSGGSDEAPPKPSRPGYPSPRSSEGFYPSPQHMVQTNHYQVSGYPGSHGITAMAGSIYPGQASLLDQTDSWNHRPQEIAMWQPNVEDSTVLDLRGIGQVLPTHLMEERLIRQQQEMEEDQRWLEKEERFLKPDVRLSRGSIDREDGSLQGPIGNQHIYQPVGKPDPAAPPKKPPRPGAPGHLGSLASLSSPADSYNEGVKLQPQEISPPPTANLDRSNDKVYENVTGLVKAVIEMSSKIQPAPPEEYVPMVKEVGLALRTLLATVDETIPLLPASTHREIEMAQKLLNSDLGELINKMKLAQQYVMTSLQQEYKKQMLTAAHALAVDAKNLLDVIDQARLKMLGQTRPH

| Compound | GI50 at 24 h [1] | GI50 [2] | IC50 (HER-2) | SI EGFR/HER-2 (HER-2) | IC50 (HER-3) | IC50 (VEGFR-2) | IC50 (EGFR) | GI50 [3] | IC50 (FAK) | Hemolysis LC30 (human erythrocytes) | melting point |
| --- | --- | --- | --- | --- | --- | --- | --- | --- | --- | --- | --- |
| NC(=S)N1N=C(c2ccc3c(c2)OCCO3)CC1c1ccc(C(F)(F)F)cc1 (centres unmarked) [Compound C17, 3-(2,3-dihydrobenzo[b][1,4]dioxin-6-yl)-5-(4-(trifluoromethyl)phenyl)-4,5-dihydro-1H-pyrazole-1-carbothioamide] | 185 ± 3.15 µM | 96.4 ± 9.22 µM | 210 ± 20 nM | 379.6 | 8.45 ± 0.78 µM | 5.16 ± 0.5 µM | 79.7 ± 7.01 µM | 0.55 ± 0.02 µM | 30.1 ± 2.76 µM | >10 mg/mL | – |
| CSc1ccc(C2CC(c3ccc4c(c3)OCCO4)=NN2C(N)=S)cc1 (centres unmarked) [Compound C15, 3-(2,3-dihydrobenzo[b][1,4]dioxin-6-yl)-5-(4-(methylthio)phenyl)-4,5-dihydro-1H-pyrazole-1-carbothioamide] | 154 ± 1.75 µM | 12.1 ± 1.17 µM | 290 ± 20 nM | 94.8 | 17.9 ± 1.48 µM | 8.75 ± 0.77 µM | 27.5 ± 2.46 µM | 0.95 ± 0.08 µM | 40.3 ± 3.88 µM | >10 mg/mL | – |
| NC(=S)N1N=C(c2ccc3c(c2)OCCO3)CC1c1ccc2ccccc2c1 (centres unmarked) [Compound C3, 3-(2,3-dihydrobenzo[b][1,4]dioxin-6-yl)-5-(naphthalen-2-yl)-4,5-dihydro-1H-pyrazole-1-carbothioamide] | – | 5.3 ± 0.49 µM | 7180 ± 650 nM | 0.62 | – | – | 4.42 ± 0.35 µM | 19.9 ± 1.84 µM | – | – | 204 to 206 °C |
| NC(=S)N1N=C(c2ccc3c(c2)OCCO3)CC1c1cccc2ccccc12 (centres unmarked) [Compound C2, 3-(2,3-dihydrobenzo[b][1,4]dioxin-6-yl)-5-(naphthalen-1-yl)-4,5-dihydro-1H-pyrazole-1-carbothioamide] | – | 4.68 ± 0.42 µM | 560 ± 50 nM | 5.25 | – | – | 2.94 ± 0.26 µM | 2.2 ± 0.18 µM | – | – | 214 to 216 °C |
| NC(=S)N1N=C(c2ccc3c(c2)OCCO3)CC1c1c(F)cccc1F (centres unmarked) [Compound C18, 5-(2,6-difluorophenyl)-3-(2,3-dihydrobenzo[b][1,4]dioxin-6-yl)-4,5-dihydro-1H-pyrazole-1-carbothioamide] | – | 15.2 ± 1.4 µM | 960 ± 80 nM | 35.4 | – | – | 34 ± 3.08 µM | 8.68 ± 0.84 µM | – | – | 208 to 209 °C |
| NC(=S)N1N=C(c2ccc3c(c2)OCCO3)CC1c1ccccc1 (centres unmarked) [Compound C1, 3-(2,3-dihydrobenzo[b][1,4]dioxin-6-yl)-5-phenyl-4,5-dihydro-1H-pyrazole-1-carbothioamide] | – | 10 ± 0.91 µM | 16000 ± 1450 nM | 1.36 | – | – | 21.9 ± 2.03 µM | 63.4 ± 6.12 µM | – | – | 166 to 168 °C |
| NC(=S)N1N=C(c2ccc3c(c2)OCCO3)CC1c1ccc(I)cc1 (centres unmarked) [Compound C14, 3-(2,3-dihydrobenzo[b][1,4]dioxin-6-yl)-5-(4-iodophenyl)-4,5-dihydro-1H-pyrazole-1-carbothioamide] | – | 135 ± 11.6 µM | 1230 ± 100 nM | 68.5 | – | – | 84.3 ± 7.81 µM | 9.12 ± 0.89 µM | – | – | 259 to 261 °C |
| NC(=S)N1N=C(c2ccc3c(c2)OCCO3)CC1c1ccc(Cl)cc1 (centres unmarked) [Compound C12, 5-(4-chlorophenyl)-3-(2,3-dihydrobenzo[b][1,4]dioxin-6-yl)-4,5-dihydro-1H-pyrazole-1-carbothioamide] | – | 33.9 ± 3.21 µM | 840 ± 70 nM | 64.1 | – | – | 53.8 ± 5.12 µM | 5.31 ± 0.48 µM | – | – | 231 to 233 °C |
| NC(=S)N1N=C(c2ccc3c(c2)OCCO3)CC1c1ccco1 (centres unmarked) [Compound C19, 3-(2,3-dihydrobenzo[b][1,4]dioxin-6-yl)-5-(furan-2-yl)-4,5-dihydro-1H-pyrazole-1-carbothioamide] | – | > 300 µM | 12000 ± 1020 nM | 16.3 | – | – | 197 ± 18.5 µM | 33.4 ± 2.95 µM | – | – | 174 to 175 °C |
